Experimental findings from US20240366589A1, “NHE3-BINDING COMPOUNDS AND METHODS FOR INHIBITING PHOSPHATE TRANSPORT” (Ardelyx, Inc., priority 2013, published 2024) are described below.

Where two headings read alike, the source gives them in different places. A value given as a limit tells only on which side of the number the result lay.

One assay deals with T1, Human NHE3 (Homo sapiens, UniProt P48764).
T1 construct: expressed in transfected cells; host or cells: Opossum kidney (OK) cells (ATCC), electroporation
T1 sequence (P48764 26-834): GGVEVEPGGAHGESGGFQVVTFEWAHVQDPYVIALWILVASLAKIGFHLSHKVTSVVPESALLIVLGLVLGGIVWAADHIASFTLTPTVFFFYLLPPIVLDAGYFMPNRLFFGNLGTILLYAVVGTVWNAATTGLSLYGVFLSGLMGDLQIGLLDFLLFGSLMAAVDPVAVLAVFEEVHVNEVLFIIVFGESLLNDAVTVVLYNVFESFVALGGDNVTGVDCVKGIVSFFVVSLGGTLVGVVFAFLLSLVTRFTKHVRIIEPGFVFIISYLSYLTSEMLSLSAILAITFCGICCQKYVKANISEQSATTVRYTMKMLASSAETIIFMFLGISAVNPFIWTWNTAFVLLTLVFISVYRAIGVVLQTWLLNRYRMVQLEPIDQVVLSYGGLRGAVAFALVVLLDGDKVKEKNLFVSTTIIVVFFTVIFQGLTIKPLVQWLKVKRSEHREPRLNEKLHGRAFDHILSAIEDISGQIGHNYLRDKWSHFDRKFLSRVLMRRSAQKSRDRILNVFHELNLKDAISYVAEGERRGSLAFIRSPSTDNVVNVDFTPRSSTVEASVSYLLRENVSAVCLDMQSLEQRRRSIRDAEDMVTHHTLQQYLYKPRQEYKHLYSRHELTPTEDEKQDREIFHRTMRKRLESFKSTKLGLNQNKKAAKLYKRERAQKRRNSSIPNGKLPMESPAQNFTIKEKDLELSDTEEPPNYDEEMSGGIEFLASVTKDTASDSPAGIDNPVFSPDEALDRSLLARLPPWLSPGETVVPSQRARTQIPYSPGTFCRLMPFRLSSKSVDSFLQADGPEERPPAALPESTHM
As to the kind of experiment: Cell-based NHE3 activity under prompt conditions (OK cells, BCECF pH recovery), human NHE3. As for the experimental part: (§1) Cell-based activity under Prompt Conditions. Rat or human NHE3-mediated Na^+-dependent H antiport was measured using a modification of the pH sensitive dye method originally reported by Paradiso (PNAS USA. 81:7436-7440, 1984). Opossum kidney (OK) cells were obtained from the ATCC and propagated per their instructions. The rat NHE3 gene (GenBank M85300) or the human NHE3 gene (GenBank NM_004174.1) was introduced into OK cells via electroporation, and cells were seeded into 96 well plates and grown overnight. Medium was aspirated from the wells, cells were washed twice with NaCl-HEPES buffer (100 mM NaCl, 50 mM HEPES, 10 mM glucose, 5 mM KCl, 2 mM CaCl2, 1 mM MgCl2, pH 7.4), then incubated for 30 min at room temperature with NH4Cl-HEPES buffer (20 mM NH4Cl, 80 mM NaCl, 50 mM HEPES, 5 mM KCl, 2 mM CaCl2, 1 mM MgCl2, pH 7.4) containing 5 μM bis(acetoxymethyl) 3,3′-(3′,6′-bis(acetoxymethoxy)-5-((acetoxymethoxy)carbonyl)-3-oxo-3H-spiro[isobenzofuran-1,9′-xanthene]-2′,7′-diyl)dipropanoate (BCECF-AM).
(§2) Cells were washed twice with Ammonium free, Na^+-free HEPES (100 mM choline, 50 mM HEPES, 10 mM glucose, 5 mM KCl, 2 mM CaCl2, 1 mM MgCl2, pH 7.4) and incubated in the same buffer for 10 minutes at room temperature to lower intracellular pH. […] Initial rates were plotted as the average 2 or more replicates, and pIC50 values were estimated using GraphPad Prism.
(§3) Cell-based activity of NHE3 Activity under ‘Prompt’ Conditions. This assay was performed as described in Example 1 (supra).

A further assay addresses T2, Rat NHE3 (Rattus norvegicus, UniProt P26433).
T2 construct: expressed in transfected cells; host or cells: Opossum kidney (OK) cells (ATCC), electroporation
As to the kind of experiment: Cell-based NHE3 activity under prompt conditions (OK cells, BCECF pH recovery), rat NHE3. The conditions noted are these: for IC50 / Prompt Rat NHE3 pIC50: prompt conditions; for IC50: read-out: Prompt Rat NHE3 pIC50 (converted). As for the experimental part:
as §1, §2, §3

For assay [1], the system named is absorption of sodium from the intestinal lumen. As to the kind of experiment: Inhibition of intestinal sodium absorption: urinary sodium (uNa) 16 h after single oral dose in rats. The conditions noted are these: for Urine Na % of control: oral gavage, 16 h post-dose. The format is in vivo, rat. As for the experimental part:
(§4) Inhibition of intestinal sodium and phosphate absorption. Urinary sodium concentration and fecal form were measured to assess the ability of selected example compounds to inhibit the absorption of sodium from the intestinal lumen. Eight-week old Sprague-Dawley rats were purchased from Charles River Laboratories (Hollister, CA), were housed 2 per cage, and acclimated for at least 3 days before study initiation. Animals were fed Harlan Teklad Global 2018 rodent chow (Indianapolis, IN) and water ad libitum throughout the study and maintained in a standard light/dark cycle of 6 AM to 6 PM. On the day of the study, between 4 PM and 5 PM, a group of rats (n=6) were dosed via oral gavage with test compound, or a pharmaceutically acceptable salt thereof, or vehicle (water) at a volume of 10 mL/kg.
(§5) After dose administration animals were placed in individual metabolic cages where they were also fed the same chow in meal form and watered ad libitum. At 16 h post-dose, the urine samples were collected and fecal form was assessed by two independent observations. Fecal forms were scored according to a common scale associated with increasing fecal water to the wettest observation in the cage's collection funnel (1, normal pellet; 2, pellet adhering to sides of collection funnel due to moisture; 3, loss of normal pellet shape; 4, complete loss of shape with a blotting pattern; 5, liquid fecal streams evident). A rat's fecal form score (FFS) was determined by averaging both observational scores for all rats within a group (n=6). The vehicle group average was 1.
For urine samples, the volumes were determined gravimetrically and centrifuged at 3,600×g. The supernatants were diluted 100-fold in deionized Milli-Q water then filtered through a 0.2 μm GHP Pall AcroPrep filter plate (Pall Life Sciences, Ann Arbor, MI) prior to analysis by ion chromatography. Ten microliters of each filtered extract was injected onto a Dionex ICS-3000 ion chromatograph system (Dionex, Sunnyvale, CA). Cations were separated by an isocratic method using 25 mM methanesulfonic acid as the eluent on an IonPac CS12A 2 mm i.d.×250 mm, 8 μm particle size cation exchange column (Dionex). Sodium was quantified using standards prepared from a cation standard mix containing Li^+, Na^+, NH4^+, K^+, Mg^2+, and Ca^2+ (Dionex). The mean mass of sodium urinated for every group in the 16 h period was determined with the vehicle group usually urinating approximately 21 mg sodium. The urine Na (uNa) for rats in the test groups were expressed as a percentage of the vehicle mean and the means were compared to that of the vehicle group by utilizing a one-way analysis of variance coupled with a Dunnett's post hoc test.
Further experiments were performed to test the compounds under the persistent and prompt conditions described above, and to test their effects on urinary excretion of sodium in rats. The latter was performed by orally dosing the compounds in rats (single dose) and measuring urinary Na excretion (as a % of vehicle). The results are indicated as percentage of urinary sodium (UNa %); low values indicate relatively active compounds.

Assay [2] deals with phosphorus and calcium levels in the urine of rats. As to the kind of experiment: Urinary excretion of phosphate and calcium in rats (16 h overnight urine). The settings on record: rats, oral gavage, 16 h post-dose. The format is in vivo, rat.
Assay [3] has as its system absorption of sodium from the intestinal lumen. In words: Fecal form score (FFS) 16 h after oral dose in rats. The format is in vivo, rat. The conditions noted are these: oral gavage, 16 h post-dose, scale 1-5. As for the experimental part:
as §4, §5

Where [4] appears, read: prompt conditions, read-out: Prompt Human NHE3 pIC50 (converted).

T2 sequence (P26433 29-831): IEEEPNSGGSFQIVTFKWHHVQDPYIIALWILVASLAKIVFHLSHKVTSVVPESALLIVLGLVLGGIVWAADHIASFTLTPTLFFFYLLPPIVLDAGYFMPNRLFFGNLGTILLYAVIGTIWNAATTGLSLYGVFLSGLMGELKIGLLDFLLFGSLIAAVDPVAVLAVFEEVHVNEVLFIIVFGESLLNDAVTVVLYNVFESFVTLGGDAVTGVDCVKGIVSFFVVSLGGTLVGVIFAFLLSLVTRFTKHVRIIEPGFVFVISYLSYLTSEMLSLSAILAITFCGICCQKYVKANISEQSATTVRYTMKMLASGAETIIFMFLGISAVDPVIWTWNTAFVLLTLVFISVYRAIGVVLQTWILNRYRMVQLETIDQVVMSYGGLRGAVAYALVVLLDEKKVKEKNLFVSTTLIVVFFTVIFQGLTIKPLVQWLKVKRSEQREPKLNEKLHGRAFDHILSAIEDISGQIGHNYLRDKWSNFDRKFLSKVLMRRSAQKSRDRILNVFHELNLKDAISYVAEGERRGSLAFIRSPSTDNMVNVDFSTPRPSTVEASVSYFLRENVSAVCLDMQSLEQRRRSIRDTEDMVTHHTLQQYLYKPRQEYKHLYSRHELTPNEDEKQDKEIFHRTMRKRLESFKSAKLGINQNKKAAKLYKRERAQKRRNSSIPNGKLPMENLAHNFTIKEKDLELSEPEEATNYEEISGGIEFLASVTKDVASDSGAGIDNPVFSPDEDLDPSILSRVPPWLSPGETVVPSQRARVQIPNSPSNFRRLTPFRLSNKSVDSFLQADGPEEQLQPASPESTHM

As for `O=C(NCCOCCOCCOCCNS(=O)(=O)c1ccc(OC2c3ccccc3CC2N2CCCCC2)cc1)C(O)C(O)C(=O)NCCOCCOCCOCCNS(=O)(=O)c1ccc(OC2c3ccccc3CC2N2CCCCC2)cc1` (mixture of isomers) [compound 55], the IC50 is 12.6 nM on Human NHE3 (setting [4]) and 20 nM at Rat NHE3. For the same molecule, the “Urine Na % of control” value in assay [1] (dose 10 mg/kg) was 85%. In assay [2] (dose 10 mg/kg), the “Urine P % of control” value stood at 45%. In addition, the “Fecal Form Score average” value in assay [3] (dose 10 mg/kg) is recorded as 1.
On the same counts, the results for `NS(=O)(=O)c1ccc(O[C@H]2c3ccccc3C[C@@H]2N2CCCCC2)cc1` (racemic) [compound 38] are 2510 nM, 3160 nM, 101%, 120% and 1.
For `O=C(NCCCCNC(=O)NCCOCCOCCNS(=O)(=O)c1ccc(O[C@H]2c3ccccc3C[C@@H]2N2CCCCC2)cc1)NCCOCCOCCNS(=O)(=O)c1ccc(O[C@H]2c3ccccc3C[C@@H]2N2CCCCC2)cc1` (racemic) [compound 47] the same measures were 15.8 nM, 50.1 nM, 73%, 51% and 1.
For `O=C(O)CN(CCN(CC(=O)O)CC(=O)NCCOCCOCCNS(=O)(=O)c1ccc(O[C@H]2c3ccccc3C[C@@H]2N2CCCCC2)cc1)CC(=O)NCCOCCOCCNS(=O)(=O)c1ccc(O[C@H]2c3ccccc3C[C@@H]2N2CCCCC2)cc1` (racemic) [compound 48] the same measures were 79.4 nM, 28.2 nM, 68%, 55% and 1.
`O=C(NCCCCNC(=O)NCCOCCOCCOCCNS(=O)(=O)c1ccc(O[C@H]2c3ccccc3C[C@@H]2N2CCCCC2)cc1)NCCOCCOCCOCCNS(=O)(=O)c1ccc(O[C@H]2c3ccccc3C[C@@H]2N2CCCCC2)cc1` (racemic) [compound 51]: the “Prompt Human NHE3 pIC50” value on Human NHE3 (prompt conditions) is 7.90. Further, at Rat NHE3, the “Prompt Rat NHE3 pIC50” value came to 7.40. Moreover, the “Urine Na % of control” value in assay [1] (dose 10 mg/kg) is on record as 79%. Moreover, in assay [2] (dose 10 mg/kg), the “Urine P % of control” value is 52%. Besides, the “Fecal Form Score average” value in assay [3] (dose 10 mg/kg) was 1.
Turning to `O=C(CCOCCOCCOCCOCCOCCC(=O)NCCOCCOCCNS(=O)(=O)c1ccc(OC2c3ccccc3CC2N2CCCCC2)cc1)NCCOCCOCCNS(=O)(=O)c1ccc(OC2c3ccccc3CC2N2CCCCC2)cc1` (racemic) [compound 54], the “Prompt Human NHE3 pIC50” value at Human NHE3 (prompt conditions) was determined as 7.50. The “Prompt Rat NHE3 pIC50” value on Rat NHE3 was found to be 7.30. For the same molecule, in assay [1] (dose 10 mg/kg), the “Urine Na % of control” value is on record as 75%. For the same molecule, in assay [2] (dose 10 mg/kg), the “Urine P % of control” value amounted to 72%. Besides, in assay [3] (dose 10 mg/kg), the “Fecal Form Score average” value was determined as 1.
Regarding `CN1Cc2c(Cl)cc(Cl)cc2[C@H](c2cccc(NC(=O)[C@H](O)[C@@H](O)[C@H](O)[C@H](O)CO)c2)C1` [Cpd 001], the IC50 on Human NHE3 (Table E5, 001 free base, 002-005 dihydrochloride salt, read-out: Human NHE3 pIC50 Prompt (converted)) was 39.8 nM. Moreover, on Rat NHE3 (Table E5, 001 free base, 002-005 dihydrochloride salt), the “Rat NHE3 pIC50 Prompt” value worked out at 7.6. The “UNa (%)” value in assay [1] (urinary Na excretion as % of vehicle, single oral dose 1 mg/kg) is on record as 41 @ 1 mg/kg %.
As for `CN1Cc2c(Cl)cc(Cl)cc2[C@H](c2cccc(S(=O)(=O)NCCOCCOCCOCCNC(=O)[C@@H](O)[C@H](O)C(=O)NCCOCCOCCOCCNS(=O)(=O)c3cccc([C@@H]4CN(C)Cc5c(Cl)cc(Cl)cc54)c3)c2)C1` [compound 6], the “Prompt Human NHE3 pIC50” value on Human NHE3 (prompt conditions) is on record as 8.30. Besides, the “Urine Na % of control” value in assay [1] (dose 1 mg/kg) was 21%. In addition, in assay [2] (dose 1 mg/kg), the “Urine P % of control” value is listed as 46%. In addition, the “Fecal Form Score average” value in assay [3] (dose 1 mg/kg) was 2.
For `CC(C)CCC[C@@H](C)[C@H]1CC[C@H]2[C@@H]3CC=C4C[C@@H](OC(=O)NCCOCCOCCOCCNS(=O)(=O)c5cccc([C@@H]6CN(C)Cc7c(Cl)cc(Cl)cc76)c5)CC[C@]4(C)[C@H]3CC[C@]12C` [compound 125], on Rat NHE3, the “Prompt Rat NHE3 pIC50” value is below 5.00. Further, the “Urine Na % of control” value in assay [1] (dose 10 mg/kg) is on record as 81%. Also, the “Urine P % of control” value in assay [2] (dose 10 mg/kg) is listed as 278%. In addition, the “Fecal Form Score average” value in assay [3] (dose 10 mg/kg) is given as 1.
`O=C(NCCCCNC(=O)NCCOCCOCCNS(=O)(=O)c1ccc(O[C@H]2c3cc(Cl)cc(F)c3C[C@@H]2N2CCCCC2)cc1)NCCOCCOCCNS(=O)(=O)c1ccc(O[C@H]2c3cc(Cl)cc(F)c3C[C@@H]2N2CCCCC2)cc1` [compound 160]: the “Prompt Human NHE3 pIC50” value on Human NHE3 (prompt conditions) was 7.70. In assay [1] (dose 10 mg/kg), the “Urine Na % of control” value turned out to be 108%. In addition, in assay [2] (dose 10 mg/kg), the “Urine P % of control” value is given as 77%. The “Fecal Form Score average” value in assay [3] (dose 10 mg/kg) is 1.
For `CN(C)[C@H]1Cc2c(Cl)cc(Cl)cc2[C@@H]1Oc1ccc(S(=O)(=O)NCCOCCOCCNC(=O)NCCCCNC(=O)NCCOCCOCCN(C)S(=O)(=O)c2ccc(O[C@H]3c4cc(Cl)cc(Cl)c4C[C@@H]3N(C)C)cc2)cc1` [compound 171] the same measures were 8.20, 49%, 49% and 1.
As for `CC(O)C(CCC(=O)NCCOCCOCCNS(=O)(=O)c1cccc([C@@H]2CN(C)Cc3c(Cl)cc(Cl)cc32)c1)(CCC(=O)NCCOCCOCCNS(=O)(=O)c1cccc([C@@H]2CN(C)Cc3c(Cl)cc(Cl)cc32)c1)CCC(=O)NCCOCCOCCNS(=O)(=O)c1cccc([C@@H]2CN(C)Cc3c(Cl)cc(Cl)cc32)c1` (stereo partly drawn) [compound 173], the “Prompt Human NHE3 pIC50” value on Human NHE3 (prompt conditions) is listed as 8.10. Further, the “Prompt Rat NHE3 pIC50” value at Rat NHE3 amounted to 7.60.
